Patent publication US7998973B2 (AVEO Pharmaceuticals, Inc., priority 2009, dated 2011)
Like-named read-outs stand apart in the source and are kept apart here.

Assays:
[1] = cited from earlier work
[2] = pharmacokinetics in the human body; format: in vivo; conditions: for accumulation: human
From the text: Serum levels reach steady state after about 2-3 weeks.
Therefore, […] is expected to exert physiological effects after temsirolimus has been cleared.

VEGF receptor 3 = VEGF receptor 3 (Homo sapiens, UniProt P35916); conditions: cited from earlier work
Sequence of VEGF receptor 3 (P35916 25-1363): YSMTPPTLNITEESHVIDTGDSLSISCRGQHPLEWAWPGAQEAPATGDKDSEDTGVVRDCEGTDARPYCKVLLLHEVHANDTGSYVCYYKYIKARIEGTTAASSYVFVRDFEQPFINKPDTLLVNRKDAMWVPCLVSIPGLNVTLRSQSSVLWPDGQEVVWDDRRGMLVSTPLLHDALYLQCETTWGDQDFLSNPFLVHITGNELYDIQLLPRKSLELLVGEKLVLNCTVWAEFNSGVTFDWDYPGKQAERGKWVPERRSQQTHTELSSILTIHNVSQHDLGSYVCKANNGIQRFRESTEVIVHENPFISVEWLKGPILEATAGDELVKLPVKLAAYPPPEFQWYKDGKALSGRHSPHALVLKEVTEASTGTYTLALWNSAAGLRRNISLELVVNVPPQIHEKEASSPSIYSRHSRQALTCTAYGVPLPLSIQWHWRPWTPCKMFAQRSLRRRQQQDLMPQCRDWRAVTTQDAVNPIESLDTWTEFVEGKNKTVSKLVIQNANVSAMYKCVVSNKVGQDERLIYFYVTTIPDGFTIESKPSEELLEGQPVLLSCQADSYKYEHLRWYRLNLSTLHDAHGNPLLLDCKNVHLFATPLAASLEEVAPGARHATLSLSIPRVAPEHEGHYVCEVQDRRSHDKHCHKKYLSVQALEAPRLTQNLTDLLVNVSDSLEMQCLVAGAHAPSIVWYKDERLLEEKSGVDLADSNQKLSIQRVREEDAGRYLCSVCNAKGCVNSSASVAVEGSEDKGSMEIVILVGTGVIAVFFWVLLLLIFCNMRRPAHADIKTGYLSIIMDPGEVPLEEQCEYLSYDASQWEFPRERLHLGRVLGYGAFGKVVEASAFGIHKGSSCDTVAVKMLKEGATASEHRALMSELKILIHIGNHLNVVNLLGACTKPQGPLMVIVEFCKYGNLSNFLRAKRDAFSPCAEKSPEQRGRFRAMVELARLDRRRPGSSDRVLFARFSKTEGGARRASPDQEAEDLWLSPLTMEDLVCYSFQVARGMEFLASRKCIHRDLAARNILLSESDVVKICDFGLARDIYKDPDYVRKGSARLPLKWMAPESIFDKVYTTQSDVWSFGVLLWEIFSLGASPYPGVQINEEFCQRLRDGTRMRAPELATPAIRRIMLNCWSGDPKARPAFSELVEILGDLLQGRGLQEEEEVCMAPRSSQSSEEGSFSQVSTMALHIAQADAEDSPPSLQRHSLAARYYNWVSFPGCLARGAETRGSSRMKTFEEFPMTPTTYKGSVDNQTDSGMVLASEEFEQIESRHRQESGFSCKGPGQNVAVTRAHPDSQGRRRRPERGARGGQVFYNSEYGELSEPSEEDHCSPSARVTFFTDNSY

[3] = preclinical models; cited from earlier work
[4] = cited from earlier work; remark: listed apart in the source

Row | SMILES | half-life relative to parent compound temsirolimus ([1]; primary metabolite of temsirolimus) | accumulation [2] | half-life ([1]; human body) | time for serum levels to reach steady state ([2]; chronic dosing) | half-life ([2]; serum, human body) [h] | inhibitory activity (VEGF receptor 3) | antitumor activity [3] | interim results ([4]; 272-patient Phase 2 clinical trial) | most common side effects ([4]; Phase 1 and Phase 2 clinical trials) | dose at which safety had been established ([4]; previous trials, 4 weeks on, 2 weeks off or 3 weeks on, 1 week off) [mg/day]
1 | CO[C@H]1C[C@@H]2CC[C@@H](C)[C@@](O)(O2)C(=O)C(=O)N2CCCC[C@H]2C(=O)O[C@H]([C@H](C)C[C@@H]2CC[C@@H](O)[C@H](OC)C2)CC(=O)[C@H](C)/C=C(\C)[C@@H](O)[C@@H](OC)C(=O)[C@H](C)C[C@H](C)/C=C/C=C/C=C/1C [sirolimus] | about three times that of the parent compound |  |  |  |  |  |  |  |  | 
2 | CO[C@H]1C[C@@H]2CC[C@@H](C)[C@@](O)(O2)C(=O)C(=O)N2CCCC[C@H]2C(=O)O[C@H]([C@H](C)C[C@@H]2CC[C@@H](OC(=O)C(C)(CO)CO)[C@H](OC)C2)CC(=O)[C@H](C)/C=C(\C)[C@@H](O)[C@@H](OC)C(=O)[C@H](C)C[C@H](C)/C=C/C=C/C=C/1C [temsirolimus, 42-(3-hydroxy-2-(hydroxymethyl)-2-methylpropanoate) rapamycin] |  | does not appear to accumulate more than would be expected based on its half life | approximately 17 hours |  |  |  |  |  |  | 
3 | COc1cc2nccc(Oc3ccc(NC(=O)Nc4cc(C)on4)c(Cl)c3)c2cc1OC [tivozanib, N-{2-chloro-4-[(6,7-dimethoxy-4-quinolyl)oxy]-phenyl}-N′-(5-methyl-3-isoxazolyl)urea] |  | accumulates in the serum after chronic dosing to a degree that would be expected based on its half-life |  | 2-3 weeks | 91.2 to 113 | picomolar inhibitory activity | exhibits antitumor activity | positive interim results | hypertension and dysphonia | 1.5
